Laboratory results taken from patent US8748428B2, “Use of a PKC inhibitor” (Novartis AG, priority 2010, dated 2014).
pIC50: −log10 of the molar value.

How the values were obtained:
Format in all cases: cell-based
DB cells = assay: Growth inhibition, CellTiter-Glo, 5 days; settings: Homo sapiens, 120 h, GC DLBCL, no NFkB mutation, 5 days treatment, read-out: growth inhibitory IC50, DB
Excerpt: (§1) Two pharmacological PKC inhibitors: (i) the pan-PKC inhibitor, Sotrastaurin, also known as AEB071, and (ii) the PKCa/b-selective compound, 3-[2-chloro-7-[(dimethylamino)methyl]-1-naphthalenyl]-4-[7-[2-(2-methoxyethoxy)ethoxy]-1H-indol-3-yl]-1H-pyrrole-2,5-dione (referred to herein as “Compound B”), were used to evaluate the proliferation of several diffuse large B cell lymphoma (DLBCL) lines. The IKKb-selective inhibitors N-(6-chloro-7-methoxy-9H-β-carbolin-8-yl)-2-methylnicotinamide (referred to herein as “MLN120B”) and N-[(2R,6R)-2,6-dimethyl-4-piperidinyl]-4-(7-fluoro-1H-indol-3-yl)-2-pyrimidinamine (referred to herein as “Compound A”) were used as control compounds. ABC DLBCL cell lines (OCI-LY3, OCI-LY10, HBL1, U2932, TMD8, Su-DHL2) and GC DLBCL cell lines (Su-DHL4, DB, K-422) were treated for 5 days with PKC inhibitors (A) Sotrastaurin (AEB071) or (B) Compound B; IKKb inhibitors (C) MLN120B or (D) Compound A. Cells were plated in 96-well plates (Corning, #3358) at 5000 cells/well in 100 μL and treated with DMSO or inhibitors at concentrations ranging from 160 nM to 20 μM (2-fold dilutions). Following 5 days of treatment, cells were lysed with CellTiter-Glo® Luminescent Cell Viability Assay reagent (Promega, G7573), lysates were transferred to opaque 96-well plates (Corning, #3971), and luminescence signal was read using the Envision. Percent growth was calculated relative to median DMSO signal.
(§2) While all ABC DLBCL cell lines were sensitive to IKK inhibitors, their response to PKC inhibitors varied strongly (Table 1A below). The cell lines that are insensitive to PKC inhibitors, OCI-Ly3 and Su-DHL2, have reported mutations in CARD11 and A20, respectively. […] The fact that these oncogenic lesions are thought to function downstream of PKCβ in CBM-NFkB signaling provides a molecular rationale for their insensitivity. […] See, Compagno, M., et al, “Mutations of multiple genes cause deregulation of NF-κB in diffuse large B-cell lymphoma” Nature, 459 (7247), 717-722 (2009)). […] Tables 1A and 1B below show the growth inhibitory IC50 values, which were determined by measuring ATP concentration (Cell Titer Glo), for the indicated compounds in the indicated cell lines. IC50 values were determined as the concentration of compound that leads to 50% reduction of cell growth.

HBL1 cells = assay: Growth inhibition, CellTiter-Glo, 5 days; settings: HBL1, 120 h; ABC DLBCL, CD79B mutation; 5 days treatment; read-out: growth inhibitory IC50, HBL1
Excerpt: as §1, §2

K422 cells = assay: Growth inhibition, CellTiter-Glo, 5 days; settings: 120 h; GC DLBCL, no NFkB mutation; 5 days treatment; read-out: growth inhibitory IC50, K422
Excerpt: as §1, §2

OCI-Ly10 cells = assay: Growth inhibition, CellTiter-Glo, 5 days; settings: Homo sapiens, OCI-Ly10, 120 h; ABC DLBCL, CD79A mutation; 5 days treatment; read-out: growth inhibitory IC50, OCI-Ly10
Excerpt: as §1, §2

OCI-Ly3 cells = assay: Growth inhibition, CellTiter-Glo, 5 days; settings: Homo sapiens, OCI-Ly3, 120 h; ABC DLBCL, CARD11 mutation; 5 days treatment; read-out: growth inhibitory IC50, OCI-Ly3
Excerpt: as §1, §2

Su-DHL2 cells = assay: Growth inhibition, CellTiter-Glo, 5 days; settings: Homo sapiens, SU-DHL-2, 120 h; ABC DLBCL, A20 mutation; 5 days treatment; read-out: growth inhibitory IC50, Su-DHL2
Excerpt: as §1, §2

Su-DHL4 cells = assay: Growth inhibition, CellTiter-Glo, 5 days; settings: Homo sapiens, SU-DHL-4, 120 h; GC DLBCL, no NFkB mutation; 5 days treatment; read-out: growth inhibitory IC50, Su-DHL4
Excerpt: as §1, §2

TMD8 cells = assay: Growth inhibition, CellTiter-Glo, 5 days; settings: Homo sapiens, TMD8, 120 h; ABC DLBCL, CD79B mutation; 5 days treatment; read-out: growth inhibitory IC50, TMD8
Excerpt: as §1, §2

U2392 cells = assay: Growth inhibition, CellTiter-Glo, 5 days; settings: 120 h; ABC DLBCL, TAK1 mutation; 5 days treatment; read-out: growth inhibitory IC50, U2392
Excerpt: as §1, §2

IL-6 mRNA in TMD8 cells = assay: IL-6 mRNA expression (Taqman); settings: TMD8, 24 hours, 10 nM to 10 uM
Excerpt: Constitutive activation of the NFkB pathway is a molecular hallmark of ABC DLBCL cells and is required for their proliferation and survival. See Davis, R. E., et al., J Exp Med, 194(12), 1861-1874 (2001). To confirm that the growth inhibitory effect in response to PKC inhibition is mediated through modulation of NFkB pathway signaling, the expression of NFkB pathway genes were monitored in response to AEB071 treatment. The NFkB-pathway-induced cytokine IL-6 was used as a marker to study NFkB pathway modulation by PKC inhibitors. See Lam, L. T., et al., Blood 111(7):3701-13 (2008). To measure IL-6 mRNA levels, cells were plated in […] plates in 2 ml media at 2M/ml, then treated with DMSO or inhibitors from 10 nM to 10 uM (4-fold dilutions) for 24 hours. Total RNA was harvested using the RNeasy kit (Qiagen, #74104) and cDNA was made from 1 μg total RNA using the High Capacity cDNA kit (ABI, #4368814), according to manufacturer's protocols. Taqman probes (ABI: IL-6, Hs00174131_m1) were used with Gene Expression Master Mix (ABI, 4369510) to determine the amount of mRNA expression for IL-6 relative to an endogenous control gene (ABI: TBP, 4326322E) and the DMSO control using the delta-delta Ct method.

[1] = system: IL-6 secretion in HBL1 cells; assay: IL-6 secretion (Quantikine ELISA); settings: HBL1, ELISA of supernatant, 48 hours
Experimental: (§3) The fact that IL-6 is secreted from cells allowed for monitoring of IL-6 levels in cell supernatants. IL-6 secretion was determined by Quantikine ELISA using supernatant from treated cells. Cells were washed and plated at 100,000 cells/well in 100 ul in fresh media in round-bottom 96-well plates (Corning, #3358). The cells were then treated with DMSO or inhibitors at concentrations ranging from 80 nM to 10 uM (2-fold dilutions), and incubated at 37° C. for 48 hours. Then the conditioned media was transferred to v-bottom 96-well plates (Nunc, #12565436). The level of IL-6 secretion was determined by the Quantkine colorimetric ELISA kit from (R & D Systems, #D6050), according to the manufacturer's instructions. For the IL-6 ELISA, the conditioned media was diluted 1:2 with fresh media (except ion: the HBL1 conditioned media was not diluted, it was used 1:1). In FIG. 2, IL-6 secretion for each dose is expressed as a percentage of IL-6 secretion from cells treated with DMSO.

[2] = system: IL-6 secretion in TMD8 cells; assay: IL-6 secretion (Quantikine ELISA); settings: Homo sapiens; TMD8, ELISA of supernatant, 48 hours
Experimental: as §3

pIC50 (OCI-Ly10 cells) | pIC50 (OCI-Ly3 cells) | pIC50 (Su-DHL2 cells) | pIC50 (Su-DHL4 cells) | pIC50 [1] | pIC50 [2] | SMILES | pIC50 (DB cells) | pIC50 (HBL1 cells) | pIC50 (K422 cells) | pIC50 (TMD8 cells) | pIC50 (U2392 cells) | IL-6 mRNA expression (IL-6 mRNA in TMD8 cells)
6.52 | 6.40 | 4.82 | 5.00 |  |  | C[C@@H]1CC(Nc2nccc(-c3c[nH]c4c(F)cccc34)n2)C[C@@H](C)N1 (stereo partly drawn) [Compound A, N-[(2R,6R)-2,6-dimethyl-4-piperidinyl]-4-(7-fluoro-1H-indol-3-yl)-2-pyrimidinamine] | < 4.70 | 5.60 | 5.00 | 6.70 | 5.60 | 
6.30 | < 4.70 | 4.82 | 5.12 | > 6.70 | > 6.70 | COCCOCCOc1cccc2c(C3=C(c4c(Cl)ccc5ccc(CN(C)C)cc45)C(=O)NC3=O)c[nH]c12 [Compound B, 3-[2-chloro-7-[(dimethylamino)methyl]-1-naphthalenyl]-4-[7-[2-(2-methoxyethoxy)ethoxy]-1H-indol-3-yl]-1H-Pyrrole-2,5-dione] | < 4.70 | 6.30 | 4.96 | 6.70 | 5.00 | reduced IL-6 mRNA expression in a dose-dependent manner
 | 4.82 | < 4.70 | 4.82 |  |  | O=C1NC(=O)C(c2c[nH]c3ccccc23)=C1c1nc(N2CCNCC2)nc2ccccc12 [Compound D, 3-(1H-Indol-3-yl)-4-[2-(piperazin-1-yl)quinazolin-4-yl]pyrrole-2,5-dione] | < 4.70 | 6.70 |  | 6.70 | 5.52 | 
 |  |  |  |  |  | CN(C)C[C@@H]1CCn2cc(c3ccccc32)C2=C(C(=O)NC2=O)c2cn(c3ccccc23)CCO1 [LY333531, (9S)-9-[(dimethylamino)methyl]-6,7,10,11-tetrahydro-9H,18H-5, 21:12,17-dimethenodibenzo[e,k]pyrrolo[3,4-h][1,4,13]oxadiazacyclohexadecine-18,20(19H)-dione] |  |  |  |  |  | reduced IL-6 mRNA expression in a dose-dependent manner
5.00 | 4.92 | 5.00 | < 4.70 |  |  | COc1c(Cl)cc2c([nH]c3cnccc32)c1NC(=O)c1cccnc1C [MLN120B, N-(6-chloro-7-methoxy-9H-β-carbolin-8-yl)-2-methylnicotinamide] | < 4.40 | 5.00 | < 4.40 | 5.00 | 5.00 | 
